Where a name gives a salt, the structure may show the parent alone. Read-outs that look alike come from different tables or passages of the source.
Columns and labels:
[1] = tested on: human oral squamous carcinoma; parameters: method as in PMID 32858984, PMID 31892556; settings: cited from earlier work
[2] = tested on: CRL1790 non-malignant colon cells; test: Cytotoxicity against CRL1790 non-malignant colon cells; format: cell-based; settings: Homo sapiens, 48 h
Experimental: (§1) The culture medium was supplemented with 10% heat-inactivated fetal bovine serum (FBS) and 1% penicillin–streptomycin antibiotics. The time of the bioassays was 48 h. The determinations were undertaken in triplicate on three different occasions.

[3] = MTT cytotoxicity against human gingival fibroblast (HGF); format: cell-based; settings: human, human gingival fibroblasts (HGF), non-malignant oral cells
Experimental: (§2) The method for evaluating 2a–f and 3a–e against human oral squamous cell carcinoma (OSCC) cell lines (Ca9-22, HSC-2, HSC-3, HSC-4) and human non-malignant oral cells [human gingival fibroblast (HGF), human periodontal ligament fibroblast (HPLF), and human pulp cell (HPC)] have been reported previously, except the length of time of this bioassay was extended from 24 h to 48 h. In brief, different quantities of the compounds were incubated with the cells in Dulbecco’s modified eagle medium (DMEM), which was supplemented with 10% FBS and antibiotics. The cell viability was determined by the 3-(4,5-dimethylthiazol-2-yl)-2,5-diphenyl-2H-tetrazolium bromide (MTT) method as summarized previously (Figure 4).

[4] = tested on: Ca9-22, HSC-2, HSC-3, and HSC-4 squamous cell carcinoma cell lines; test: Average over Ca9-22, HSC-2, HSC-3 and HSC-4 OSCC cell lines; format: cell-based, human; settings: for CC50: average of four OSCC cell lines, read-out: Average CC50; for Average SI: average of SI for four OSCC cell lines; for PSE (potency-selectivity expression): reciprocal of average CC50 (OSCC) x average SI x 100
Experimental: as §2

[5] = tested on: HCT116 colon cancer cells; test: Cytotoxicity against HCT116 colon cancer cells; format: cell-based, human; settings: for IC50: 48 h; for HCT116 SI (selectivity index): IC50 CRL1790 / IC50 HCT116
Experimental: as §1

CEM cells [6] = test: Mitochondrial membrane potential in CEM cells (JC-1, flow cytometry); format: cell-based, human; settings: 7 h
Experimental: The effect on the mitochondrial membrane potential in CEM cells was undertaken using a published method. In brief, the cells were incubated with different compounds for 7 h. The cells were then stained with the JC-1 dye, and the samples were examined by flow cytometry. The results are portrayed in Figure 6C.

[7] = MTT cytotoxicity against human periodontal ligament fibroblast (HPLF); format: cell-based; settings: human, human periodontal ligament fibroblasts (HPLF), non-malignant oral cells
Experimental: as §2

[8] = tested on: HCT116 and HT29 colon cancer cells; test: Average over HCT116 and HT29 colon cancer cells; format: cell-based, human; settings: for IC50: Homo sapiens, average of HCT116 and HT29, unit printed only for the single cell-line columns; for Average SI: average of SI for HCT116 and HT29; for PSE (potency-selectivity expression): reciprocal of average IC50 x average SI x 100, colon cells
Experimental: as §1

[9] = tested on: Ca9-22 squamous cell carcinoma cells; test: MTT cytotoxicity against Ca9-22 squamous cell carcinoma; format: cell-based, human; settings: for CC50: Homo sapiens, Ca9-22, 48 h, MTT, read-out: Ca9-22 CC50; for Ca9-22 SI: average CC50 HGF/HPLF/HPC divided by CC50 Ca9-22
Experimental: as §2

[10] = tested on: HSC-3 squamous cell carcinoma cells; test: MTT cytotoxicity against HSC-3 squamous cell carcinoma; format: cell-based, human; settings: for CC50: Homo sapiens, HSC-3, 48 h, MTT, read-out: HSC-3 CC50; for HSC-3 SI: average CC50 HGF/HPLF/HPC divided by CC50 HSC-3
Experimental: as §2

[11] = tested on: HSC-4 squamous cell carcinoma cells; test: MTT cytotoxicity against HSC-4 squamous cell carcinoma; format: cell-based, human; settings: for CC50: Homo sapiens, HSC-4, 48 h, MTT, read-out: HSC-4 CC50; for HSC-4 SI: average CC50 HGF/HPLF/HPC divided by CC50 HSC-4
Experimental: as §2

[12] = MTT cytotoxicity against human pulp cell (HPC); format: cell-based; settings: human, human pulp cells (HPC), non-malignant oral cells
Experimental: as §2

CEM cells [13] = test: ROS production in CEM cells (carboxy-H2DCFDA, flow cytometry); format: cell-based, human; settings: CC50 and twice the CC50 concentrations
Experimental: (§3) Apoptosis induction in Ca9-22 cells was evaluated by cell cycle analysis and Western blot analysis as described previously (Figure 5). Briefly, for the cell cycle analysis, cells were treated for 24 h with the test samples. Cells were then fixed, digested with RNase A, stained with propidium iodide, filtered through Falcon® cell trainers (Corning Inc., Corning, NY, USA), and then subjected to cell sorting. For the Western blot, cell lysates (equivalent to 5 µg protein) were applied to SDS-polyacrylamide gel electrophoresis. A literature method was used to determine whether representative compounds led to increases in the production of ROS [29]. In brief, CEM cells were treated with the compounds overnight, then with 6-carboxy-2′,7′-dichlorodihydrofluorescein diacetate (carboxy-H2DCFDA) and the samples were processed using flow cytometry.

HL-60 cells = test: Differential DNA staining (DNS) cytotoxicity assay, HL-60 cells; format: cell-based; settings: Homo sapiens
Experimental: (§4) The method used for generating the data of human acute lymphocytic leukemia (CEM) and human acute promyelocytic leukemia (HL-60) cells in Table 4 has been described previously. In brief, the cells were cultured in media supplemented with 10% FBS and antibiotics. […] The CC50 values of the compounds listed in Table 4 were obtained by linear interpolation equations [28, 29].

CEM cells [14] = test: Differential DNA staining (DNS) cytotoxicity assay, CEM cells; format: cell-based; settings: Homo sapiens, CCRF-CEM
Experimental: as §4

Ca9-22 cells = test: Western blot for caspase 3 activation in Ca9-22 cells; format: cell-based, human; settings: 3 μM, 24 h
Experimental: as §3

CEM cells [15] = test: Annexin V-FITC apoptosis assay in CEM cells; format: cell-based, human; settings: CC50 and twice the CC50 concentrations, 24 h
Experimental: In order to discover if representative compounds induce apoptosis, the annexin V-FITC assay was used. In brief, CEM cells were treated with various compounds for 24 h. The cells were collected and stained with propidium iodide and annexin V-FITC.

[16] = tested on: HSC-2 squamous cell carcinoma cells; test: MTT cytotoxicity against HSC-2 squamous cell carcinoma; format: cell-based, human; settings: for CC50: Homo sapiens, HSC-2, 48 h, MTT, read-out: HSC-2 CC50; for HSC-2 SI: average CC50 HGF/HPLF/HPC divided by CC50 HSC-2
Experimental: as §2

HT29 colon cancer cells = test: Cytotoxicity against HT29 colon cancer cells; format: cell-based, human; settings: for IC50: 48 h; for HT29 SI (selectivity index): IC50 CRL1790 / IC50 HT29
Experimental: as §1

[17] = Average over HGF, HPLF and HPC non-malignant oral cells; format: cell-based, human; settings: human, HPLF and HPC non-malignant oral cells (average), average of HGF
Experimental: as §2

[18] = HL-60, 24 h, read-out: CC50 HL-60 Cells 24 h
[19] = HL-60, 48 h, read-out: CC50 HL-60 Cells 48 h
[20] = 24 h, read-out: CC50 CEM Cells 24 h
[21] = 48 h, read-out: CC50 CEM Cells 48 h

SMILES	IC50 [2]	CC50 at 48 h [3]	CC50 ([4]; Homo sapiens)	CC50 at 48 h [7]	IC50 [8]	Average SI [8]	PSE (potency-selectivity expression) [8]	CC50 [9]	Ca9-22 SI [9]	CC50 [10]	HSC-3 SI [10]	CC50 [11]	HSC-4 SI [11]	CC50 at 48 h [12]	CC50 (HL-60 cells; [18])	CC50 (HL-60 cells; [19])	CC50 (CEM cells [14]; [20])	CC50 (CEM cells [14]; [21])	CC50 [16]	HSC-2 SI [16]	other results
COc1ccc2c(=O)c(/C=C/c3ccc(O)cc3)coc2c1 [3-[(1E)-2-(4-hydroxyphenyl)ethenyl]-7-methoxy-4H-1-benzopyran-4-one]																					SI (tumor specificity) [1]: 182
COc1ccc2c(=O)c(/C=C/c3ccccc3)coc2c1 [7-methoxy-3-[(1E)-2-phenylethenyl]-4H-1-benzopyran-4-one]																					SI (tumor specificity) [1]: 301
COc1ccc(C=C2CNCC(=Cc3ccc(O)c(CN(C)C)c3)C2=O)cc1OC.Cl.Cl [Compound 2a, 3-(3,4-Dimethoxybenzylidene)-5-(3-((dimethylamino)methyl)-4-hydroxybenzylidene)-4-piperidone dihydrochloride]	17500 ± 580 nM	15900 nM	1080 nM	5000 nM	1770 nM	9.91	560	680 nM	11.4	1060 nM	7.29	1390 nM	5.56	2300 nM	1990 ± 920 nM	2210 ± 370 nM	1640 ± 680 nM	820 ± 20 nM	1200 nM	6.44	Average SI [4]: 7.67; IC50 ([5]; Homo sapiens, HCT-116, 48 h): 1730 ± 480 nM; HCT116 SI (selectivity index) [5]: 10.1; depolarization of the mitochondrial membrane potential (CEM cells [6]): induced; ROS generation (CEM cells [13]): generate ROS; caspase 3 activation (cleavage of PARP and procaspase) (Ca9-22 cells): induced; apoptotic cells (CEM cells [15]): approximately 30%; IC50 (HT29 colon cancer cells; Homo sapiens, HT-29, 48 h): 1800 ± 1240 nM; HT29 SI (selectivity index) (HT29 colon cancer cells): 9.72; CC50 at 48 h [17]: 7730 nM
COc1ccc(/C=C2\CNC/C(=C\c3ccc(O)c(CN4CCN(C)CC4)c3)C2=O)cc1OC [Compound 2f, 3-[3-(4-Methyl-1-piperazinylmethyl)-4-hydroxybenzylidene]-5-(3,4-dimethoxybenzylidene)-4-piperidone trihydrochloride]	12700 ± 310 nM	33100 nM	2490 nM	12000 nM	720 nM	17.7	2458	1940 nM	8.81	2470 nM	6.92	2730 nM	6.26	6100 nM	3750 ± 1070 nM	2730 ± 570 nM	8910 ± 1320 nM	2890 ± 200 nM	2800 nM	6.11	Average SI [4]: 7.03; IC50 [5]: 680 ± 310 nM; IC50 ([5]; Homo sapiens, HCT-116, 48 h): < 1000 nM; HCT116 SI (selectivity index) [5]: 18.7; IC50 (HT29 colon cancer cells): 760 ± 300 nM; IC50 (HT29 colon cancer cells; Homo sapiens, HT-29, 48 h): < 1000 nM; HT29 SI (selectivity index) (HT29 colon cancer cells): 16.7; CC50 at 48 h [17]: 17100 nM
CN1CCN(Cc2cc(/C=C3\CNC/C(=C\c4ccccc4)C3=O)ccc2O)CC1 [Compound 3a]	21700 ± 250 nM	10200 nM	< 1000 nM	4700 nM	370 nM	60.1	16,243	430 nM	13.6	490 nM	11.9	710 nM	8.21	2600 nM	8270 ± 400 nM	1670 ± 540 nM	3060 ± 80 nM	3320 ± 300 nM	670 nM	8.70	CC50 [4]: 580 nM; PSE (potency-selectivity expression) [4]: > 1000; depolarization of the mitochondrial membrane potential (CEM cells [6]): induced; ROS generation (CEM cells [13]): generate ROS; caspase 3 activation (cleavage of PARP and procaspase) (Ca9-22 cells): induced; apoptotic cells (CEM cells [15]): approximately 30%; CC50 at 48 h [17]: 5830 nM
CN1CCN(Cc2cc(/C=C3\CNC/C(=C\c4ccc(F)cc4)C3=O)ccc2O)CC1 [Compound 3b]	12600 ± 240 nM	18500 nM	< 1000 nM	7400 nM	270 nM	46.8	17,333	550 nM	18.4	950 nM	10.6	1140 nM	8.86	4300 nM	5900 ± 760 nM	2650 ± 430 nM	3150 ± 1290 nM	400 ± 30 nM	910 nM	11.1	CC50 [4]: 890 nM; PSE (potency-selectivity expression) [4]: > 1000; HCT116 SI (selectivity index) [5]: 45.0; HT29 SI (selectivity index) (HT29 colon cancer cells): 48.5; CC50 at 48 h [17]: 10100 nM
CN1CCN(Cc2cc(/C=C3\CNC/C(=C\c4ccc([N+](=O)[O-])cc4)C3=O)ccc2O)CC1 [Compound 3e]	15800 ± 270 nM	12500 nM	< 1000 nM	2700 nM	330 nM	48.0	14,546	330 nM	17.3	470 nM	12.1	600 nM	9.50	1900 nM	4110 nM	6630 ± 680 nM	760 ± 150 nM	830 ± 30 nM	580 nM	9.83	CC50 [4]: 500 nM; HCT116 SI (selectivity index) [5]: 46.5; depolarization of the mitochondrial membrane potential (CEM cells [6]): induced; ROS generation (CEM cells [13]): generate ROS; caspase 3 activation (cleavage of PARP and procaspase) (Ca9-22 cells): induced; apoptotic cells (CEM cells [15]): approximately 30%; HT29 SI (selectivity index) (HT29 colon cancer cells): 49.4; CC50 at 48 h [17]: 5700 nM
